In patent US8299056B2 (Signal Pharmaceuticals, LLC, priority 2008, dated 2012):
pIC50: −log10 of the molar value. Like-named read-outs stand apart in the source and are kept apart here.

Biological target: T1, Syk (Homo sapiens, UniProt P43405)
T1 construct: purchased Carna Biosciences
Test: Syk HTRF assay
Format: biochemical
Outline: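 Read-out is the 665 nm/615 nm time-resolved fluorescence ratio after EDTA stop and Eu-anti-phosphotyrosine plus streptavidin-DyLight 647 detection. Reaction ran 1 h at room temperature with start mix of 87.5 μM ATP and 80 nM substrate peptide in pH 7.6 HEPES/MgCl2 buffer.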

[1] = activity levels A-D, read-out: Activity Level (IC50 in the Syk HTRF assay)
[2] = read-out: Activity Level (Syk HTRF assay IC50)
[3] = IC50 activity level, read-out: Activity Level

Structure (SMILES)	pIC50 [1]	pIC50 [2]	pIC50 [3]
Cc1nc2cc(Nc3nc4cccc(-c5ccccc5)n4n3)ccc2[nH]1 [compound 46, N-(2-methyl-1H-benzo[d]imidazol-5-yl)-5-phenyl-[1,2,4]triazolo[1,5-a]pyridin-2-amine]	–	6.60 to 11.30	–
Cc1n[nH]c2cc(Nc3nc4cccc(N(C)C5CCOCC5)n4n3)ccc12 [Example 189, N^5-methyl-N^2-(3-methyl-1H-indazol-6-yl)-N^5-(tetrahydro-2H-pyran-4-yl)-[1,2,4]triazolo[1,5-a]pyridin-2,5-diamine]	–	6.60 to 11.30	–
Cn1ncc2cc(Nc3nc4cccc(NC5CCOCC5)n4n3)ccc21 [Example 551, N^2-(1-methyl-1H-indazol-5-yl)-N^5-(tetrahydro-2H-pyran-4-yl)-[1,2,4]triazolo[1,5-a]pyridine-2,5-diamine]	–	–	6.60 to 11.30
COCc1nc2ccc(Nc3nc4cccc(CC5CCOCC5)n4n3)cc2[nH]1 [compound 132, N-(2-(methoxymethyl)-1H-benzo[d]imidazol-6-yl)-5-((tetrahydro-2H-pyran-4-yl)methyl)-[1,2,4]triazolo[1,5-a]pyridin-2-amine]	–	6.60 to 11.30	–
O=C1NCc2c1cccc2-c1cccc2nc(Nc3ccccc3)nn12 [Example 499, 4-(2-(phenylamino)-[1,2,4]triazolo[1,5-a]pyridin-5-yl)-isoindolin-1-one]	–	–	5.00 to 6.00
CNCc1nc2ccc(-c3cccc4nc(Nc5ccc(F)cc5)nn34)cc2[nH]1 [Example 437, N-(4-fluorophenyl)-5-(2-((methylamino)methyl)-1H-benzo[d]imidazol-6-yl)-[1,2,4]triazolo[1,5-a]pyridin-2-amine]	–	–	6.60 to 11.30
c1cncc(Nc2nc3cccc(N[C@@H]4CCCNC4)n3n2)c1 [Example 434, (R)-N^5-(piperidin-3-yl)-N^2-(pyridin-3-yl)-[1,2,4]triazolo[1,5-a]pyridine-2,5-diamine]	–	–	5.00 to 6.00
Nc1noc2cc(Nc3nc4cccc(-c5ccccc5)n4n3)ccc12 [compound 44]	–	6.30 to 6.60	–
c1ccc(-c2cccc3nc(Nc4ccc(-c5ncn[nH]5)cc4)nn23)cc1 [compound 56, N-(4-(1H-1,2,4-triazol-5-yl)phenyl)-5-phenyl-[1,2,4]triazolo[1,5-a]pyridin-2-amine]	–	6.60 to 11.30	–

More lines, now with the values ahead:

pIC50 [1]	pIC50 [2]	pIC50 [3]	Structure (SMILES)
6.60 to 11.30	–	–	O[C@H]1CC[C@@H](Nc2cccc3nc(Nc4ccc5cn[nH]c5c4)nn23)CC1 [Example 365, cis-4-(2-(1H-indazol-6-ylamino)-[1,2,4]triazolo[1,5-a]pyridin-5-ylamino)cyclohexanol]
5.00 to 6.00	–	–	Oc1ccc(Nc2nc3cccc(N[C@H]4CC[C@@H](O)CC4)n3n2)cn1 [Example 371, cis-5-(5-(4-hydroxycyclohexylamino)-[1,2,4]triazolo[1,5-a]pyridin-2-ylamino)pyridin-2-ol]
6.60 to 11.30	–	–	O[C@H]1CC[C@@H](Nc2cccc3nc(Nc4ccc(F)cc4)nn23)CC1 [Example 319, cis-4-(2-(4-fluorophenylamino)-[1,2,4]triazolo[1,5-a]pyridin-5-ylamino)cyclohexanol]
–	–	5.00 to 6.00	O[C@H]1CC[C@@H](Oc2cccc3nc(Nc4ccc(F)cc4)nn23)CC1 [Example 417, cis-4-(2-(4-fluorophenylamino)-[1,2,4]triazolo[1,5-a]pyridin-5-yloxy)cyclohexanol]
5.00 to 6.00	–	–	NC(=O)C1CCCN(Cc2cccc3nc(Nc4ccc(C(F)(F)F)cc4)nn23)C1 (stereo not shown) [Example 257, 1-((2-(4-(trifluoromethyl)phenylamino)-[1,2,4]triazolo[1,5-a]pyridin-5-yl)methyl)piperidine-3-carboxamide]
5.00 to 6.00	–	–	OCCCOc1cccc2nc(Nc3ccc(C(F)(F)F)cc3)nn12 [Example 304, 3-(2-(4-(trifluoromethyl)phenylamino)-[1,2,4]triazolo[1,5-a]pyridin-5-yloxy)propan-1-ol]
6.00 to 6.30	–	–	CNC(=O)c1ccc(Nc2nc3cccc(N4CCC(O)C4)n3n2)cc1 (stereo in doubt) [Example 250, (R)-4-(5-(3-hydroxypyrrolidin-1-yl)-[1,2,4]triazolo[1,5-a]pyridin-2-ylamino)-N-methylbenzamide]
